Measurements from PMC7865522, “Analyzing Kinase Similarity in Small Molecule and Protein Structural Space to Explore the Limits of Multi-Target Screening” (Molecules, 2021).
Values joined by “and” are separate entries in the source; they are usually repeats but may differ in a detail not shown here. Identical values can stand only once.

How the values were obtained:
BRAF = molecular target: T1, BRAF (Homo sapiens, UniProt P15056); test: DiscoverX KINOMEscan competition binding assay; settings: 10 µM; Table 3; read-out: % ctrl. activity at 10 µM, BRAF (DiscoverX), printed as symbol
T1 construct: purchased DiscoverX (KINOMEscan service); host or cells: E. coli BL21-derived host (T7 phage) or HEK-293
Outline: (§1)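 Competition binding: compound 10 µM, kinase plus ligand-coated streptavidin beads, 20% SeaBlock/0.17x PBS/0.05% Tween 20/6 mM DTT, 1 h RT. Beads washed, kinase eluted with 0.5 µM free affinity ligand, qPCR read-out. Reported as % control.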

EGFR = molecular target: T2, EGFR (Homo sapiens, UniProt P00533); test: DiscoverX KINOMEscan competition binding assay; settings: compound 10 µM; lower values = higher affinity; below 35% = significant binding
T2 construct: purchased DiscoverX (KINOMEscan service); host or cells: E. coli BL21-derived host (T7 phage) or HEK-293
Outline: as §1

ErbB2 = molecular target: T3, ErbB2 (Homo sapiens, UniProt P04626); test: DiscoverX KINOMEscan competition binding assay; settings: compound 10 µM; lower values = higher affinity; below 35% = significant binding
T3 construct: purchased DiscoverX (KINOMEscan service); host or cells: E. coli BL21-derived host (T7 phage) or HEK-293
Outline: as §1

VEGFR2 = molecular target: T4, VEGFR2 (Homo sapiens, UniProt P35968); test: DiscoverX KINOMEscan competition binding assay; settings: compound 10 µM; lower values = higher affinity; below 35% = significant binding
T4 construct: purchased DiscoverX (KINOMEscan service); host or cells: E. coli BL21-derived host (T7 phage) or HEK-293
Outline: as §1

EGFR-L858R = molecular target: T5, EGFR-L858R (Homo sapiens, UniProt P00533, L858R); test: HTRF KinEASE-TK IC50 determination (Rauh Lab); assay type: biochemical; settings: ATP at Km (9 µM); read-out: IC50, EGFR L858R mutant
T5 construct: purchased Carna Biosciences lot13CBS-0537B
Experimental: (§2) IC 50 determinations for EGFR, its mutants and ErbB2-insYVMA (Carna Biosciences, lot13CBS-0005K for EGFR-wt; Carna, lot13CBS-0537B for EGFR-L858R; Carna, lot12CBS-0765B for EGFR-L858R/T790M; and ProQinase, lot1525-0000-1/003 for ErbB2-insYVMA) were performed with the HTRF KinEASE-TK assay from Cisbio according to the manufacturer’s instructions. Briefly, the amount of kinase in each reaction well was set to 0.60 ng EGFR-wt (0.67 nM), 0.10 ng EGFR-L858R (0.11 nM), 0.07 ng EGFR-T790M/L858R (0.08 nM), or 0.01 ng ErbB2-insYVMA (0.01 nM). An artificial substrate peptide (TK-substrate from Cisbio) was phosphorylated by EGFR or ErbB2. After completion of the reaction (reaction times: 25 min for EGFR-wt, 15 min for L858R, 20 min for L858R/T790M, and 40 min for ErbB2-insYVMA), the reaction was stopped by addition of buffer containing EDTA as well as an anti-phosphotyrosine antibody labeled with europium cryptate and streptavidin labeled with the fluorophore XL665. FRET between europium cryptate and XL665 was measured after an additional hour of incubation to quantify the phosphorylation of the substrate peptide. […] Kinase and inhibitor were preincubated for 30 min before the reaction was started by addition of ATP and substrate peptide. An EnVision multimode plate reader (Perkin Elmer) was used to measure the fluorescence of the samples at 620 nm (Eu ^3+ -labeled antibody) and 665 nm (XL665-labeled streptavidin) 50 µs after excitation at 320 nm. The quotient of both intensities for reactions made with eight different inhibitor concentrations was then analyzed using the Quattro Software Suite for IC 50 -determination. Each reaction was performed in duplicate, and at least three independent determinations of each IC 50 were made.

EGFR-L858R/T790M = molecular target: T6, EGFR-L858R/T790M (Homo sapiens, UniProt P00533, L858R/T790M); test: HTRF KinEASE-TK IC50 determination (Rauh Lab); assay type: biochemical; settings: ATP at Km (4 µM); read-out: IC50, EGFR L858R/T790M double mutant
T6 construct: purchased Carna Biosciences lot12CBS-0765B
Experimental: as §2

EGFR-wt = molecular target: T7, EGFR-wt (Homo sapiens, UniProt P00533); test: HTRF KinEASE-TK IC50 determination (Rauh Lab); assay type: biochemical; settings: ATP at Km (9.5 µM), racemate tested, read-out: IC50 ± s.d., EGFR
T7 construct: purchased Carna Biosciences lot13CBS-0005K
Experimental: as §2

ErbB2-insYVMA = molecular target: T8, ErbB2-insYVMA (Homo sapiens, UniProt P04626, INS775YVMA); test: HTRF KinEASE-TK IC50 determination (Rauh Lab); assay type: biochemical; settings: ATP at Km (6 µM); racemate tested; read-out: IC50 ± s.d., ErbB2insYVMA
T8 construct: purchased ProQinase lot1525-0000-1/003
Experimental: as §2

T8 sequence (P04626 with tags, fused parts or gaps INS775YVMA limits assumed): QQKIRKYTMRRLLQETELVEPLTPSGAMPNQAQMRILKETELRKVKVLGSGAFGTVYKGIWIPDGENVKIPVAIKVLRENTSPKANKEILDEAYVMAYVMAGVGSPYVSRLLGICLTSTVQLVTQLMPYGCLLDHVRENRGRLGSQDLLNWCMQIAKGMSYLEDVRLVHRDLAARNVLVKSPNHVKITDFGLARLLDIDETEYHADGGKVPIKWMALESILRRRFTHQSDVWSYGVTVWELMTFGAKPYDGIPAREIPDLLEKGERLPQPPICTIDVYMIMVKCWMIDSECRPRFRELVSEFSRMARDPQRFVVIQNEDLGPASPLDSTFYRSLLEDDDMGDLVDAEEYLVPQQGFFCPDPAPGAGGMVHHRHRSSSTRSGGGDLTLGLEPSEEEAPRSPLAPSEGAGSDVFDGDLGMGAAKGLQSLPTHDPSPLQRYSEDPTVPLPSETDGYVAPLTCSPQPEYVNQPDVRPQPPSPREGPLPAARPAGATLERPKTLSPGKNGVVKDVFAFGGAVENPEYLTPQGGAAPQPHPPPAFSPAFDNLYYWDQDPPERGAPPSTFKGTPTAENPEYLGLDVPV
T2 sequence (P00533 25-1210): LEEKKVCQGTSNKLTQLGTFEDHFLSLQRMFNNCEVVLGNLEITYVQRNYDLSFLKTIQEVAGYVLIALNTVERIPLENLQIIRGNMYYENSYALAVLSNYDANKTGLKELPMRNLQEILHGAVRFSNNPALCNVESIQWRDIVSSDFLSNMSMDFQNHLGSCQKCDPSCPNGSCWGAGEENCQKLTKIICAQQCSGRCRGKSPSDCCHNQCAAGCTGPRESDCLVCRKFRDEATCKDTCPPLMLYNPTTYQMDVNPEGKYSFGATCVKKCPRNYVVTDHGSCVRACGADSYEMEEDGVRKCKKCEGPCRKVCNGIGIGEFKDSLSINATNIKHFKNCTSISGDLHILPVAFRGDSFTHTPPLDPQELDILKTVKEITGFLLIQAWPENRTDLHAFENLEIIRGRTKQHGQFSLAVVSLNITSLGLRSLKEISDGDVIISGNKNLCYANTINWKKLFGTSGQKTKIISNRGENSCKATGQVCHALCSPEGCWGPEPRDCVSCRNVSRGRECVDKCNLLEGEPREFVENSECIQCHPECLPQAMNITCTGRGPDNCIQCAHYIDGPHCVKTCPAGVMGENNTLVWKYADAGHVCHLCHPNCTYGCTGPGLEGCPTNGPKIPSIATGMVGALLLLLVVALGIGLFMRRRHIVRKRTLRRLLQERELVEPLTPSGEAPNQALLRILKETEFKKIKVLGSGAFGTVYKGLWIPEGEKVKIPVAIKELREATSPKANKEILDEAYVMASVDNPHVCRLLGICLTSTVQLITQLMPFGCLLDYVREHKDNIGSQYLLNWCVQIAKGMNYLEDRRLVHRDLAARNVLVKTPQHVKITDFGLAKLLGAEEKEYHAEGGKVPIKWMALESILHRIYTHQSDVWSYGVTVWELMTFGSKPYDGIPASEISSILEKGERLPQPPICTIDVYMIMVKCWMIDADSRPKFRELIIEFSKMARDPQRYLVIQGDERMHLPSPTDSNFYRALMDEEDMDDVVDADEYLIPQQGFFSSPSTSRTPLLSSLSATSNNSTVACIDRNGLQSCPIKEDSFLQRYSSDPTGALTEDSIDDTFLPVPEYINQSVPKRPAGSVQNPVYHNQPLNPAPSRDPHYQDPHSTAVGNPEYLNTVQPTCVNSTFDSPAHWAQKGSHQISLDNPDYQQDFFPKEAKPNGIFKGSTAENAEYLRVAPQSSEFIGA
T7 sequence (P00533 25-1210): as above
T6 sequence (P00533 25-1210 T790M/L858R): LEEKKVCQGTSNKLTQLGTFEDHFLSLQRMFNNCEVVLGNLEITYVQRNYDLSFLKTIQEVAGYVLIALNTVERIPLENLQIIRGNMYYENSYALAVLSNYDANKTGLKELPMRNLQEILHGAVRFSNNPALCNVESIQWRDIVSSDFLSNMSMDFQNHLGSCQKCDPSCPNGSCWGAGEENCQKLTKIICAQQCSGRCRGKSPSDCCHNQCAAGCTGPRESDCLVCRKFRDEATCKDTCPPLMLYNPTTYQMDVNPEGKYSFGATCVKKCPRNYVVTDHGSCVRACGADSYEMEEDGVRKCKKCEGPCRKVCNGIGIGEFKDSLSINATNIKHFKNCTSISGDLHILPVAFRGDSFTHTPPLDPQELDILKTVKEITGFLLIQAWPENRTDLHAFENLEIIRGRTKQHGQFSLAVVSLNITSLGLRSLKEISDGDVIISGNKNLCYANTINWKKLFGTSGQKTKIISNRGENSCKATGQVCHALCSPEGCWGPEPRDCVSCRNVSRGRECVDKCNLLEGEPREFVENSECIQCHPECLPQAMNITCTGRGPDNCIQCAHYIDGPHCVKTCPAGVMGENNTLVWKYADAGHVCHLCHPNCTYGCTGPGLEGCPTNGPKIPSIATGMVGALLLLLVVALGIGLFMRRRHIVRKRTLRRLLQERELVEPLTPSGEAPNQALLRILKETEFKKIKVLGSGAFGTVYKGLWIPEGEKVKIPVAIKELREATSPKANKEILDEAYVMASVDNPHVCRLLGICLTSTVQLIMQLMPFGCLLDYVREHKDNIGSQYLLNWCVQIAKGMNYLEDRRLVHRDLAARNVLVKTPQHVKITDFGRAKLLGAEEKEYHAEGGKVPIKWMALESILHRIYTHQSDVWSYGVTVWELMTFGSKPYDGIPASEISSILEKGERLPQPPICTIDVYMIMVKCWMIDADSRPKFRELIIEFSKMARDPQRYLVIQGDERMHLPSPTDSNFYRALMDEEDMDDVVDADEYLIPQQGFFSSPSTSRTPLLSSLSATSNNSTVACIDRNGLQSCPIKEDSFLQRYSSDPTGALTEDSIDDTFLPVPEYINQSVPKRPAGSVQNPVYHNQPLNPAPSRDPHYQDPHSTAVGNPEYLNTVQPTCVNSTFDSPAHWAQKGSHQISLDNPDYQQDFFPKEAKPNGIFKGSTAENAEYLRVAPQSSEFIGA
T1 sequence (P15056 whole entry): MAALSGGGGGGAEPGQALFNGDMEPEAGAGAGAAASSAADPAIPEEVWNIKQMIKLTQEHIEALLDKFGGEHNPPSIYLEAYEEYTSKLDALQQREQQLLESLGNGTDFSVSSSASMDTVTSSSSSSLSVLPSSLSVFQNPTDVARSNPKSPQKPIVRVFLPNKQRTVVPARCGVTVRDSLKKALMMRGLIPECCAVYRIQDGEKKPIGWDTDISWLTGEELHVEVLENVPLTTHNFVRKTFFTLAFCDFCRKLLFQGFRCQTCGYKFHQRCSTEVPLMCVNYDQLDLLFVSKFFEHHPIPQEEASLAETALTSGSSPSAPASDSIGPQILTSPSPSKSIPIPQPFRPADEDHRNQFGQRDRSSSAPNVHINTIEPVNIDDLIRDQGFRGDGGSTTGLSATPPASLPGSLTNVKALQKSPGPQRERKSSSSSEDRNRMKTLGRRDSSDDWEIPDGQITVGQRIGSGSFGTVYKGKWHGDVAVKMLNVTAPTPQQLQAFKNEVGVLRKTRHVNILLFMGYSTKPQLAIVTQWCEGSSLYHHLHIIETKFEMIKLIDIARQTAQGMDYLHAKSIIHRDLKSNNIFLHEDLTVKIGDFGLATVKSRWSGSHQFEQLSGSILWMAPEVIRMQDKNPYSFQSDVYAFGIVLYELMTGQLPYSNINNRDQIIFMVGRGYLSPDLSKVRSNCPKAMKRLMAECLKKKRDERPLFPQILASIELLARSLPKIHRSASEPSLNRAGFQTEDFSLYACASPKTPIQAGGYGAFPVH

- remaining binding at 10 µM (BRAF): ≥ 99%
- % control, EGFR (DiscoverX) (EGFR): 17 % control
- % control, ErbB2 (DiscoverX) (ErbB2): 21 % control
- % control, VEGFR2 (DiscoverX) (VEGFR2): 99 % control
- IC50 (EGFR-L858R): 2350 ± 397 nM
- IC50 (EGFR-L858R/T790M): > 10000 nM
- IC50 (EGFR-wt): 324 ± 50 nM
- IC50 (ErbB2-insYVMA): < 324 nM and 220 nM
Structure (SMILES): COC(=O)Cc1ccc(Oc2ncnc3sc4c(c23)CC[C@@H](C)C4)cc1 (racemic) [DS39984]
